{"source": "paper PMC3032312", "about": "(Cell Death & Disease, 2010)", "key": {"[1]": {"system": "36 selected tumor cell lines", "experiment": "ATP-Lite cell viability assay", "format": "cell-based, human", "conditions": "72 h"}, "Mcl-1": {"system": "Mcl-1", "conditions": "displacement of fluorochrome-conjugated BH3 Bid peptide; cited from earlier work"}, "Bcl-B": {"molecular_target": "T1, Bcl-B (Homo sapiens, UniProt Q9HD36)", "T1 sequence (Q9HD36 1-204)": "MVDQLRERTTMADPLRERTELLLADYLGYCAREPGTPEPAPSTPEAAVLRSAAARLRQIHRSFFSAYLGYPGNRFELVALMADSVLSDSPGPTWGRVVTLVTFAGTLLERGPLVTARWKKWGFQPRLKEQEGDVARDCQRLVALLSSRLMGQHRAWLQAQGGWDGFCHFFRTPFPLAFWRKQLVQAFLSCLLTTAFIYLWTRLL", "conditions": "displacement of fluorochrome-conjugated BH3 Bid peptide; ABT-737; cited from earlier work"}, "Bfl-1": {"system": "Bfl-1", "conditions": "displacement of fluorochrome-conjugated BH3 Bid peptide; cited from earlier work"}}, "data": [{"smiles": "CN(C)CC[C@H](CSc1ccccc1)Nc1ccc(S(=O)(=O)NC(=O)c2ccc(N3CCN(Cc4ccccc4-c4ccc(Cl)cc4)CC3)cc2)cc1[N+](=O)[O-]", "note": "[ABT-737]", "values": [{"measurement": "cell killing effect in six of the studied cell lines", "setting": "[1]; concentration range tested 0.1-30 μM", "result": "no effect"}, {"measurement": "cytotoxic activity against leukemia/lymphoma lines", "setting": "[1]; leukemia/lymphoma lines, ATP-Lite", "result": "potent cytotoxic activity"}, {"measurement": "IC50 values, Mcl-1", "setting": "Mcl-1", "result": "not active"}, {"measurement": "IC50 values, Bcl-B", "setting": "Bcl-B", "result": "not active"}, {"measurement": "IC50 values, Bfl-1", "setting": "Bfl-1", "result": "not active"}]}]}
